Experiments:
[1] = biological target: T1, MAGL (Mus musculus (Mouse), UniProt O35678); assay: Mouse brain proteomes from inhibitor treated mice (oral gavage, sacrificed 4 h after administration); type: in vivo; conditions: 5 mg/kg oral gavage
Protocol: (§1) Preparation of Mouse Brain Proteomes from Inhibitor Treated Mice.
(§2) Inhibitors were administered to wild-type C57B1/6J by oral gavage in a vehicle of polyethylene glycol. Each animal was sacrificed 4 h following administration and brain proteomes were prepared and analyzed according to previously established methods (See Niphakis, M. J., et al. (2011) ACS Chem. Neurosci. and Long, J. Z., et al. Nat. Chem. Biol. 5:37-44).

[2] = biological target: T2, FAAH (Mus musculus (Mouse), UniProt O08914); assay: as above; type: in vivo; conditions: 5 mg/kg oral gavage
Protocol: as §1, §2

[3] = biological target: T1, MAGL; assay: In vitro competitive activity-based protein profiling, mouse proteomes (brain membrane fraction or cell lysates); type: biochemical; conditions: mouse proteome, read-out: MAGL % inh. 1 μM (mouse)
Method in brief: (§3)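 Activity of MAGL and FAAH was quantified from fluorescent gel band intensities. Beforehand, inhibitors at several concentrations competed against subsequent probe labelling (FP-Rh, JW912 or HT-01) in species-matched proteomes, each step 30 min at 37° C.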

[4] = biological target: T2, FAAH; assay: as above; type: biochemical; conditions: mouse proteome, read-out: FAAH % inh. 1 μM (mouse)
Method in brief: as §3

[5] = biological target: MAGL (Homo sapiens (Human), UniProt Q99685); assay: In vitro competitive activity-based protein profiling, human proteomes (prefrontal cortex or PC3 cell membrane fractions); type: biochemical; conditions: human proteome; for inhibition at 1 µM: read-out: MAGL % inh. 1 μM (human)
Method in brief: as §3

[6] = biological target: FAAH (Homo sapiens (Human), UniProt O00519); assay: as above; type: biochemical; conditions: human proteome; for inhibition at 1 µM: read-out: FAAH % inh. 1 μM (human)
Method in brief: as §3

T1 sequence (O35678 whole entry): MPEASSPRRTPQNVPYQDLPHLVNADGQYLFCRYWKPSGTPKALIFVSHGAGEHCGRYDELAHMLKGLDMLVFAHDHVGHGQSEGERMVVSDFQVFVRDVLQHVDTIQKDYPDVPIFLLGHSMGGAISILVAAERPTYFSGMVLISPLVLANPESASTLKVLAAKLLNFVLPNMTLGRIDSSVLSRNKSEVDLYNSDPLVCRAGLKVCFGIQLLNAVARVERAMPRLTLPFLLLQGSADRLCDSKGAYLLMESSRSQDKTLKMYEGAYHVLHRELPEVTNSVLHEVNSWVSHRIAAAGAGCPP
Chain of MAGL (Homo sapiens (Human), UniProt Q99685) (Q99685 whole entry): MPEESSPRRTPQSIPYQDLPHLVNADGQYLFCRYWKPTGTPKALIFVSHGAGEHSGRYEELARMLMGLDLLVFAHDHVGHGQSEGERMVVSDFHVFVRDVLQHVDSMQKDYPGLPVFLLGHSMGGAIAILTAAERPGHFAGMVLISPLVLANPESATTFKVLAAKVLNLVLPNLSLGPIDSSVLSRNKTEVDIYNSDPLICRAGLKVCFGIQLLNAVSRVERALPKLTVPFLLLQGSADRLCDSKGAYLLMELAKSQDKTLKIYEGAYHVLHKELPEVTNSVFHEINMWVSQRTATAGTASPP
Chain of FAAH (Homo sapiens (Human), UniProt O00519) (O00519 whole entry): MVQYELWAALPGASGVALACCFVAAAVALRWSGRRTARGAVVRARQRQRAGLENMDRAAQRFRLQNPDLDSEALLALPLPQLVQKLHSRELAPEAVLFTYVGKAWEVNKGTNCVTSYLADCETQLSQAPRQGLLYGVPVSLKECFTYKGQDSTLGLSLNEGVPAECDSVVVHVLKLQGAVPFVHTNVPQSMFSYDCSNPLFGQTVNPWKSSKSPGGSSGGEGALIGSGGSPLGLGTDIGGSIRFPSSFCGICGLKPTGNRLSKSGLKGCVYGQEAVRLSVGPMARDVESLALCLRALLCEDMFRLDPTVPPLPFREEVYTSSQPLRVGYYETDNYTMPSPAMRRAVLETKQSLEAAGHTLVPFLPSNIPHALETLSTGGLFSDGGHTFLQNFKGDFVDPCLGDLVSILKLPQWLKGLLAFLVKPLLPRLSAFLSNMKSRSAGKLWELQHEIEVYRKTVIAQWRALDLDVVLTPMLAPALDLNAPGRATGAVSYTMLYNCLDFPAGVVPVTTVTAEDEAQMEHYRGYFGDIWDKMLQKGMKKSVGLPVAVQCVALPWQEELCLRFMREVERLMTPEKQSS
T2 sequence (O08914 whole entry): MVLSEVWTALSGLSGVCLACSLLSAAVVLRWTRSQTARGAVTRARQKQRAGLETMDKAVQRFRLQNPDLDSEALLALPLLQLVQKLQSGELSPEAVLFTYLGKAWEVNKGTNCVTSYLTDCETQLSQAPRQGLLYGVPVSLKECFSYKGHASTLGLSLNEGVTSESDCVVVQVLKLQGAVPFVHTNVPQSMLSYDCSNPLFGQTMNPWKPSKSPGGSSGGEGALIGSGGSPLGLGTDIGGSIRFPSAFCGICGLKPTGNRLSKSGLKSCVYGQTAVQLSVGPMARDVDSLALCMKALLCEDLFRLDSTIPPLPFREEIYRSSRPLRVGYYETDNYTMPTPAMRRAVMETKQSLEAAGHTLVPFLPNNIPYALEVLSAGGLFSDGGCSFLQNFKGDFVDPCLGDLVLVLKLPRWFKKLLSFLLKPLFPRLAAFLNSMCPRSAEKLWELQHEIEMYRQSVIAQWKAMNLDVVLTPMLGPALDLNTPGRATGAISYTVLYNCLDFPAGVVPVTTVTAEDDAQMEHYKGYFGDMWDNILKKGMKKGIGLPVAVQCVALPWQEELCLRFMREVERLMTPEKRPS

SMILES | MAGL % inh. 5 mg/kg (mouse) [1] | FAAH % inh. 5 mg/kg (mouse) [2] | inhibition at 1 µM [3] | inhibition at 1 µM [4] | inhibition at 1 µM [5] | inhibition at 1 µM [6] | IC50 [5] | IC50 [6]
CN(Cc1ccc(C(F)(F)F)cc1N1CCN(C(=O)CO)CC1)C1(C)CCN(C(=O)n2ccc(NS(C)(=O)=O)n2)CC1 [Example 104, N-(1-(4-((2-(4-(2-Hydroxyacetyl)piperazin-1-yl)-4-(trifluoromethyl)benzyl)(methyl)amino)-4-methylpiperidine-1-carbonyl)-1H-pyrazol-3-yl)methanesulfonamide] | D (% inhibition is greater than or equal to 0% and less than 25%) | D (% inhibition is greater than or equal to 0% and less than 25%) | > 75% | 0 to 25% | > 75% | 0 to 25% |  | 
CC(=O)Nc1ccn(C(=O)N2CCN(Cc3ccc(Cl)cc3OCCCC(=O)O)CC2)n1 [Example 106, 4-(2-((4-(3-Acetamido-1H-pyrazole-1-carbonyl)piperazin-1-yl)methyl)-5-chlorophenoxy)butanoic acid] | D (% inhibition is greater than or equal to 0% and less than 25%) | D (% inhibition is greater than or equal to 0% and less than 25%) | > 75% | 0 to 25% | > 75% | 0 to 25% |  | 
CC(=O)Nc1ccn(C(=O)N2CCN(Cc3ccc(Cl)cc3NCC(=O)O)CC2)n1 [Example 108, (2-((4-(3-Acetamido-1H-pyrazole-1-carbonyl)piperazin-1-yl)methyl)-5-chlorophenyl)glycine] | D (% inhibition is greater than or equal to 0% and less than 25%) | D (% inhibition is greater than or equal to 0% and less than 25%) | > 75% | 0 to 25% | > 75% | 0 to 25% |  | 
CC(=O)Nc1ccn(C(=O)N2CC3CN(Cc4cccc(C(F)(F)F)c4)CC3C2)n1 (stereo not shown) [Example 112, N-(1-(5-(3-(Trifluoromethyl)benzyl)octahydropyrrolo[3,4-c]pyrrole-2-carbonyl)-1H-pyrazol-3-yl)acetamide] | A (% inhibition is greater than or equal to 75%) | A (% inhibition is greater than or equal to 75%) | > 75% | > 75% | > 75% | 25 to 50% |  | 
CS(=O)(=O)Nc1ccn(C(=O)N2CCN(Cc3ccc(Cl)c(N4CC[C@H](F)C4)c3)CC2)n1 [Example 117, (S)-N-(1-(4-(4-Chloro-3-(3-fluoropyrrolidin-1-yl)benzyl)piperazine-1-carbonyl)-1H-pyrazol-3-yl)methanesulfonamide] | B (% inhibition is greater than or equal to 50% and less than 75%) | D (% inhibition is greater than or equal to 0% and less than 25%) | > 75% | 0 to 25% | > 75% | 0 to 25% |  | 
CC(=O)Nc1ccn(C(=O)N2CC[C@H](Oc3ccc(C(N)=O)c(C(F)(F)F)c3)[C@H](F)C2)n1 [Example 118, 4-(((3R,4S)-1-(3-Acetamido-1H-pyrazole-1-carbonyl)-3-fluoropiperidin-4-yl)oxy)-2-(trifluoromethyl)benzamide] | D (% inhibition is greater than or equal to 0% and less than 25%) | D (% inhibition is greater than or equal to 0% and less than 25%) | > 75% | 0 to 25% | > 75% | 0 to 25% |  | 
CS(=O)(=O)Nc1ccn(C(=O)N2CCN(Cc3ccc(C(F)(F)F)c(N4CC[C@H](F)C4)c3)CC2)n1 [Example 119, (S)-N-(1-(4-(3-(3-Fluoropyrrolidin-1-yl)-4-(trifluoromethyl)benzyl)piperazine-1-carbonyl)-1H-pyrazol-3-yl)methanesulfonamide] | A (% inhibition is greater than or equal to 75%) | D (% inhibition is greater than or equal to 0% and less than 25%) | > 75% | 0 to 25% | > 75% | 0 to 25% |  | 
CC(=O)Nc1ccn(C(=O)N2CCC3(CCN(Cc4ccc(C(N)=O)c(C(F)(F)F)c4)C3)CC2)n1 [Example 125, 4-((8-(3-Acetamido-1H-pyrazole-1-carbonyl)-2,8-diazaspiro[4.5]decan-2-yl)methyl)-2-(trifluoromethyl)benzamide] | D (% inhibition is greater than or equal to 0% and less than 25%) | D (% inhibition is greater than or equal to 0% and less than 25%) | > 75% | 0 to 25% | > 75% | 0 to 25% |  | 
CC(=O)Nc1ccn(C(=O)N2CCN(Cc3ccc(-c4ccccc4)cc3C)CC2)n1 [Example 131, N-(1-(4-((3-Methyl-[1,1′-biphenyl]-4-yl)methyl)piperazine-1-carbonyl)-1H-pyrazol-3-yl)acetamide] | A (% inhibition is greater than or equal to 75%) | A (% inhibition is greater than or equal to 75%) | > 75% | > 75% | > 75% | > 75% | < 0.1 µM | 1 to 10 µM
CC(=O)Nc1ccn(C(=O)N2CCC(C)(N(C)Cc3cc(C(F)(F)F)cc(C4(C(=O)O)CCCC4)c3)CC2)n1 [Example 132, 1-(3-(((1-(3-Acetamido-1H-pyrazole-1-carbonyl)-4-methylpiperidin-4-yl)(methyl)amino)methyl)-5-(trifluoromethyl)phenyl)cyclopentane-1-carboxylic acid] | D (% inhibition is greater than or equal to 0% and less than 25%) | D (% inhibition is greater than or equal to 0% and less than 25%) | > 75% | 0 to 25% | > 75% | 0 to 25% | < 0.1 µM | 1 to 10 µM
C[C@@H]1CN(C(=O)n2ccc(NS(C)(=O)=O)n2)CCN1Cc1ccc(Cl)c(N2CC3COCC3C2)c1 (stereo partly drawn) [Example 133, N-(1-((3R)-4-(4-Chloro-3-(tetrahydro-1H-furo[3,4-c]pyrrol-5(3H)-yl)benzyl)-3-methylpiperazine-1-carbonyl)-1H-pyrazol-3-yl)methanesulfonamide] | D (% inhibition is greater than or equal to 0% and less than 25%) | D (% inhibition is greater than or equal to 0% and less than 25%) | > 75% | 0 to 25% | > 75% | 0 to 25% |  | 
CS(=O)(=O)Nc1ccn(C(=O)N2CC[C@H](Oc3ccc(C(F)(F)F)c(N4CCC(F)CC4)c3)[C@H](F)C2)n1 [Example 134, N-(1-((3R,4S)-3-Fluoro-4-(3-(4-fluoropiperidin-1-yl)-4-(trifluoromethyl)phenoxy)piperidine-1-carbonyl)-1H-pyrazol-3-yl)methanesulfonamide] | C (% inhibition is greater than or equal to 25% and less than 50%) | D (% inhibition is greater than or equal to 0% and less than 25%) | > 75% | 0 to 25% | > 75% | 0 to 25% |  | 
C[C@H]1CN(Cc2ccc(Cl)c(N3CC4COCC4C3)c2)CCN1C(=O)n1ccc(NS(C)(=O)=O)n1 (stereo partly drawn) [Example 135, N-(1-((2S)-4-(4-Chloro-3-(tetrahydro-1H-furo[3,4-c]pyrrol-5(3H)-yl)benzyl)-2-methylpiperazine-1-carbonyl)-1H-pyrazol-3-yl)methanesulfonamide] | D (% inhibition is greater than or equal to 0% and less than 25%) | D (% inhibition is greater than or equal to 0% and less than 25%) | > 75% | 0 to 25% | > 75% | 0 to 25% |  | 
C[C@H]1CN(Cc2ccc(Cl)c(N3CCC(F)CC3)c2)CCN1C(=O)n1ccc(NS(C)(=O)=O)n1 [Example 136, (S)-N-(1-(4-(4-Chloro-3-(4-fluoropiperidin-1-yl)benzyl)-2-methylpiperazine-1-carbonyl)-1H-pyrazol-3-yl)methanesulfonamide] | A (% inhibition is greater than or equal to 75%) | D (% inhibition is greater than or equal to 0% and less than 25%) | > 75% | 0 to 25% | > 75% | 0 to 25% |  | 
C[C@@H]1CN(Cc2ccc(Cl)c(N3CC4COCC4C3)c2)CCN1C(=O)n1ccc(NS(C)(=O)=O)n1 (stereo partly drawn) [Example 137, N-(1-((2R)-4-(4-Chloro-3-(tetrahydro-1H-furo[3,4-c]pyrrol-5(3H)-yl)benzyl)-2-methylpiperazine-1-carbonyl)-1H-pyrazol-3-yl)methanesulfonamide] | D (% inhibition is greater than or equal to 0% and less than 25%) | D (% inhibition is greater than or equal to 0% and less than 25%) | > 75% | 0 to 25% | > 75% | 0 to 25% |  | 

Source: US11149037B2, “Pyrazole MAGL inhibitors” (H. Lundbeck A/S, priority 2017, dated 2021)
